Results from the NIST ThermoML archive (doi:10.1016/j.jct.2006.05.003).
Numbers after ± are expanded uncertainties.

Tests used:
[1] = xn = mol fraction of the nth substance listed; details: 101 kPa, Liquid
[2] = refractive index (Na D-line) (dimensionless); xn = mol fraction of the nth substance listed; details: 101 kPa, Liquid, Standard Abbe refractometry
[3] = 101 kPa, Liquid
[4] = refractive index (Na D-line) (dimensionless); details: 101.33 kPa, Liquid, Standard Abbe refractometry

C1COCCO1 [1,4-dioxane] + CCCCl
x1 = 1
Details	mass density, [1] [kg/m3]	refractive index, [2]
298.15 K	1027.87 ± 0.34	1.41995 ± 0.00058
313.15 K	1010.69 ± 0.28	1.41264 ± 0.00058

CCC(C)Cl (stereo not given) [2-chlorobutane]
Details	mass density, [3] [kg/m3]	refractive index, [4]
298.15 K	867.4 ± 0.81	1.39404 ± 0.00067
313.15 K	850.13 ± 0.86	1.38573 ± 0.00067

CC(C)CCl [1-chloro-2-methylpropane]
Details	mass density, [3] [kg/m3]	refractive index, [4]
298.15 K	871.13 ± 0.8	1.39528 ± 0.00067
313.15 K	853.51 ± 0.85	1.38686 ± 0.00067

CCCCCl [1-chlorobutane]
Details	mass density, [3] [kg/m3]	refractive index, [4]
298.15 K	880.69 ± 0.77	1.3995 ± 0.00066
313.15 K	863.82 ± 0.82	1.39133 ± 0.00066

C1COCCO1 [1,4-dioxane] + CC(C)(C)Cl
x1 = 1
Details	mass density, [1] [kg/m3]	refractive index, [2]
298.15 K	1027.87 ± 0.34	1.41995 ± 0.00058
313.15 K	1010.69 ± 0.28	1.41264 ± 0.00058

C1COCCO1 [1,4-dioxane] + CCC(C)Cl
x1 = 1
Details	mass density, [1] [kg/m3]	refractive index, [2]
298.15 K	1027.87 ± 0.34	1.41995 ± 0.00058
313.15 K	1010.69 ± 0.28	1.41264 ± 0.00058

CC(C)CCl [1-chloro-2-methylpropane] + C1COCCO1
Details	mass density, [1] [kg/m3]	refractive index, [2]
298.15 K, x2 = 0	871.13 ± 0.8	1.39528 ± 0.00067
298.15 K, x2 = 0.045	876.79 ± 0.77	1.39616 ± 0.0007
298.15 K, x2 = 0.1196	886.36 ± 0.73	1.39763 ± 0.0007
298.15 K, x2 = 0.2433	902.87 ± 0.65	1.40025 ± 0.00069
298.15 K, x2 = 0.3412	916.58 ± 0.59	1.40243 ± 0.00069
298.15 K, x2 = 0.4407	931.19 ± 0.53	1.40471 ± 0.00069
298.15 K, x2 = 0.5447	947.22 ± 0.46	1.40725 ± 0.00068
298.15 K, x2 = 0.6463	963.67 ± 0.4	1.40983 ± 0.00068
298.15 K, x2 = 0.737	979.04 ± 0.34	1.4123 ± 0.00068
298.15 K, x2 = 0.8305	995.63 ± 0.28	1.41492 ± 0.00068
298.15 K, x2 = 0.9157	1011.45 ± 0.29	1.41742 ± 0.00068
298.15 K, x2 = 0.9515	1018.31 ± 0.31	1.41849 ± 0.00068
313.15 K, x2 = 0	853.51 ± 0.85	1.38686 ± 0.00067
313.15 K, x2 = 0.0474	859.42 ± 0.82	1.38783 ± 0.00067
313.15 K, x2 = 0.1492	872.58 ± 0.76	1.39001 ± 0.00067
313.15 K, x2 = 0.2654	888.36 ± 0.69	1.39259 ± 0.00068
313.15 K, x2 = 0.3687	903.12 ± 0.62	1.39504 ± 0.0007
313.15 K, x2 = 0.4565	916.21 ± 0.57	1.39721 ± 0.00072
313.15 K, x2 = 0.5541	931.39 ± 0.51	1.39973 ± 0.00075
313.15 K, x2 = 0.6426	945.76 ± 0.45	1.40211 ± 0.00079
313.15 K, x2 = 0.7423	962.69 ± 0.39	1.40489 ± 0.00083
313.15 K, x2 = 0.8326	978.76 ± 0.33	1.40752 ± 0.00088
313.15 K, x2 = 0.9112	993.38 ± 0.28	1.40987 ± 0.00091
313.15 K, x2 = 0.9606	1002.9 ± 0.26	1.41139 ± 0.00097

C1COCCO1 [1,4-dioxane] + CC(C)CCl
x1 = 1
Details	mass density, [1] [kg/m3]	refractive index, [2]
298.15 K	1027.87 ± 0.34	1.41995 ± 0.00058
313.15 K	1010.69 ± 0.28	1.41264 ± 0.00058

CCCCl [1-chloropropane] + C1COCCO1
Details	mass density, [1] [kg/m3]	refractive index, [2]
298.15 K, x2 = 0	884.26 ± 0.77	1.3856 ± 0.0007
298.15 K, x2 = 0.1027	898.64 ± 0.7	1.38919 ± 0.0007
298.15 K, x2 = 0.2077	913.41 ± 0.63	1.39281 ± 0.00069
298.15 K, x2 = 0.3029	926.89 ± 0.57	1.39609 ± 0.00069
298.15 K, x2 = 0.4034	941.19 ± 0.5	1.39957 ± 0.00069
298.15 K, x2 = 0.506	955.87 ± 0.44	1.40308 ± 0.00062
298.15 K, x2 = 0.6062	970.28 ± 0.38	1.40651 ± 0.00068
298.15 K, x2 = 0.706	984.73 ± 0.32	1.4099 ± 0.00068
298.15 K, x2 = 0.8081	999.6 ± 0.27	1.41336 ± 0.00068
298.15 K, x2 = 0.9059	1013.96 ± 0.3	1.41673 ± 0.00068
298.15 K, x2 = 0.9486	1020.26 ± 0.32	1.41818 ± 0.00068
313.15 K, x2 = 0	865.14 ± 0.82	1.37673 ± 0.0007
313.15 K, x2 = 0.1009	879.74 ± 0.75	1.38047 ± 0.00069
313.15 K, x2 = 0.2026	894.27 ± 0.69	1.38432 ± 0.00069
313.15 K, x2 = 0.3067	909.2 ± 0.62	1.38812 ± 0.00067
313.15 K, x2 = 0.4061	923.53 ± 0.56	1.39169 ± 0.00065
313.15 K, x2 = 0.5056	937.97 ± 0.49	1.39523 ± 0.00062
313.15 K, x2 = 0.6044	952.38 ± 0.44	1.39872 ± 0.00064
313.15 K, x2 = 0.7114	968.04 ± 0.37	1.40252 ± 0.00064
313.15 K, x2 = 0.8026	981.42 ± 0.32	1.40576 ± 0.00063
313.15 K, x2 = 0.9011	995.98 ± 0.27	1.40922 ± 0.00062
313.15 K, x2 = 0.951	1003.38 ± 0.27	1.41097 ± 0.00059
